According to patent publication US7186743B2, “Substituted pyrazolyl compounds for the treatment of inflammation” (Pharmacia Corporation, priority 2001, dated 2007):
Where two headings read alike, the source gives them in different places. One block for each compound: values may come before it.

Molecular target: T1, IKK2 (Homo sapiens, UniProt O14920)
T1 construct: made in house; host or cells: insect cells (baculovirus, pFastBac; SF9)
T1 sequence (O14920 1-756): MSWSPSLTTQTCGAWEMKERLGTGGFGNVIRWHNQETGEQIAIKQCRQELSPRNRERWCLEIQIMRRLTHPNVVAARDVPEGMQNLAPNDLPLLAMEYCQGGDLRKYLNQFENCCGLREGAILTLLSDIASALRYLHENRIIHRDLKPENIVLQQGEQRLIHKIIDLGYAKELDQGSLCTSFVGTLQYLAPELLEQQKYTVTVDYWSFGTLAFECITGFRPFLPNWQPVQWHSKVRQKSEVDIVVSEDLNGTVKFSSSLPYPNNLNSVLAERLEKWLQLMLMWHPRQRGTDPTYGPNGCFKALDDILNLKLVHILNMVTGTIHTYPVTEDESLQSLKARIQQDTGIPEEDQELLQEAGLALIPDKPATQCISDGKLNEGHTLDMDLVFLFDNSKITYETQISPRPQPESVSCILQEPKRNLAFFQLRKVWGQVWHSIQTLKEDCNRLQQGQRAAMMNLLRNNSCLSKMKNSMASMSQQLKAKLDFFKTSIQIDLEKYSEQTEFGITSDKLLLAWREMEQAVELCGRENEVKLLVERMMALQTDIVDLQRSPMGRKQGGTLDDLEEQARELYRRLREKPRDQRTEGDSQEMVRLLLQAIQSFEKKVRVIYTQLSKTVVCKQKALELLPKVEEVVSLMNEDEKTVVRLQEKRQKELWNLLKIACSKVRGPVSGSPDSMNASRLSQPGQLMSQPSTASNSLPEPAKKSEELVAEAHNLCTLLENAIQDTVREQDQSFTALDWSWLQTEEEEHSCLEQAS
Test: IKKβ Resin Enzyme Assay (IKK2 resin)
Format: biochemical
Description: cDNAs of human IKK1 and IKK2 were amplified by reverse transcriptase-polymerase chain reaction from human placental RNA (Clonetech). hIKK1 was subcloned into pFastBac HTa (Life Technologies) and expressed as N-terminal His6-tagged fusion protein. The hIKK2 cDNA was amplified using a reverse oligonucleotide primer which incorporated the peptide sequence for a FLAG-epitope tag at the C-terminus of the IKK2 coding region ([…]). The hIKK2:FLAG cDNA was subcloned into the baculovirus vector pFastBac. The rhIKK2 ([…]) mutant was constructed in the same vector used for wild type rhIKK2 using a QuikChange™ mutagenesis kit (Stratagene). Viral stocks of each construct were used to infect insect cells grown in 40 L suspension culture. […] Cell lysates were stored at −80° C. until purification of the recombinant proteins was undertaken as described below.
A 10-liter culture of baculovirus-expressing IKK2 tagged with FLAG peptide was centrifuged and the cell pellet (MOI=0.1 and I=72 hrs) was re-suspended in buffer A. These cells were microfluidized, and centrifuged at 100,000×g for 45 min. Supernatant was passed over a G-25 column equilibrated with Buffer A. Protein peak was collected and incubated with anti-FLAG affinity resin on a rotator overnight in buffer B. The resin was washed in batch with 10–15 bed volumes of buffer C. Washed resin was poured into a column and rhIKK2 homodimer was eluted using 5 bed volumes of buffer B containing FLAG peptide. 5 mM DTT, 0.1% NP-40 and BSA (concentrated to 0.1% in final amount) was added to the eluted enzyme before concentrating in using an Amicon membrane with a molecular weight cut-off of 30 kDa. Enzyme was aliquoted and stored at −80° C.
IKKβ kinase activity was measured using a biotinylated IκBα peptide ([…]32-Gly-Leu-Asp-Ser36-Met-Lys-Asp-Glu-Glu) (American Peptide Co.). […] ATP (Amersham) (about 1×10^5 cpm), 1 μM ATP (Sigma), 1 mM DTT (Sigma), 2 mM MgCl2 (Sigma), 2 mM MnCl2 (Sigma), 10 mM NaF (Sigma), 25 mM Hepes (Sigma) buffer, pH 7.6 and 20 μl enzyme solution and 10 ul inhibitor in a final volume of 50 μl. After incubation at 25° C. for 30 min, 150 μl resin (Dowex anion-exchange resin AG1X8 200–400 mesh) in 900 mM formate, pH 3.0 was added to each well to stop the reaction. Resin was allowed to settle for one hour and 50 ul of supernatant was removed to a Micolite-2 flat bottom plate (Dynex). 150 μl of scintillation fluid (Microscint 40) (Packard) was added to each well. Incorporation of [γ-^33P] ATP was measured using a Top-Count NXT (Packard).

[1] = Table 10, read-out: IKK2 Resin IC50
[2] = Table 4, read-out: IKK2 Resin IC50
[3] = Table 12, read-out: IKK2 Resin IC50
[4] = Table 2, read-out: IKK Resin IC50
[5] = Table 3, read-out: IKK Resin IC50
[6] = Table 11, read-out: IKK2 Resin IC50

Structure (SMILES): COc1ccc(C(=O)Nc2ccc3c(c2)-c2c(c(C(N)=O)nn2-c2cccc(O)c2)CC3)c(Cl)c1 [Example 283, 8-[(2-chloro-4-methoxybenzoyl)ammo]-1-(3-hydroxyphenyl)-4,5-dihydro-1H-benzo[g]indazole-3-carboxamide]
IC50 [1]: ≤ 1000 nM

Structure (SMILES): COc1ccc(C(=O)Nc2ccc3c(c2)-c2c(c(C(N)=O)nn2-c2cccc(O)c2)CC3)c(Cl)c1OC [Example 286, 8-[(2-chloro-3,4-dimethoxybenzoyl)amino]-1-(3-hydroxyphenyl)-4,5-dihydro-1H-benzo[g]indazole-3-carboxamide]
IC50 [1]: ≤ 1000 nM

Structure (SMILES): COc1ccc(C(=O)Nc2ccc3c(c2)-c2c(c(C(N)=O)nn2-c2ccc4c(c2)OCO4)CC3)c(Cl)c1 [Example 182, 1-(1,3-benzodioxol-5-yl)-8-[(2-chloro-4-methoxybenzoyl)amino]-4,5-dihydro-1H-benzo[g]indazole-3-carboxamide]
IC50 [2]: ≤ 1000 nM

Structure (SMILES): CNC(=O)/C=C/c1ccc(-n2nc(C(N)=O)c3c2-c2cc(NC(=O)c4ccccc4Cl)ccc2CC3)cc1 [Example 311, 8-[(2-chlorobenzoyl)amino]-1-{4-[(1E)-3-(methylamino)-3-oxoprop-1-enyl]phenyl}-4,5-dihydro-1H-benzo[g]indazole-3-carboxamide]
IC50 [3]: ≤ 1000 nM

Structure (SMILES): CS(=O)(=O)c1ccc(-n2nc(C(N)=O)c3c2-c2cc(NC(=O)c4cc(Cl)cnc4Cl)ccc2CC3)cc1 [Example 123, 8-{[(2,5-dichloropyridin-3-yl)carbonyl]amino}-1-[4-(methylsulfonyl)phenyl]-4,5-dihydro-1H-benzo[g]indazole-3-carboxamide]
IC50 [4]: ≤ 1000 nM

Structure (SMILES): CS(=O)(=O)c1ccc(-n2nc(C(N)=O)c3c2-c2cc(NC(=O)c4ccccc4Cl)ccc2CC3)cn1 [Example 368, 8-[(2-chlorobenzoyl)amino]-1-[6-(methylsulfonyl)pyridin-3-yl]-4,5-dihydro-1H-benzo[g]indazole-3-carboxamide]
IC50 (read-out: IKK-2 resin IC50): ≤ 1000 nM

Structure (SMILES): NC(=O)c1nn(-c2ccc3c(c2)OCO3)c2c1CCc1ccc(NC(=O)c3cc4c(cc3Cl)OCO4)cc1-2 [Example 168, 1-(1,3-benzodioxol-5-yl)-8-{[(6-chloro-1,3-benzodioxol-5-yl)carbonyl]amino}-4,5-dihydro-1H-benzo[g]indazole-3-carboxamide]
IC50 [2]: ≤ 1000 nM

Structure (SMILES): COc1ccc(C(=O)Nc2ccc3c(c2)-c2c(c(C(N)=O)nn2-c2ccc(S(C)(=O)=O)cc2)CC3)cc1 [Example 143, 8-[(4-methoxybenzoyl)amino]-1-[4-(methylsulfonyl)phenyl]-4,5-dihydro-1H-benzo[g]indazole-3-carboxamide]
IC50 [5]: ≤ 1000 nM

Structure (SMILES): NC(=O)c1nn(-c2ccc(C#CCCCO)cc2)c2c1CCc1ccc(NC(=O)c3cccnc3Cl)cc1-2 [Example 387, 8-{[(2-chloropyridin-3-yl)carbonyl]amino}-1-[4-(5-hydroxypent-1-ynyl)phenyl]-4,5-dihydro-1H-benzo[g]indazole-3-carboxamide]
IC50 (Table 17, read-out: IKK2 Resin IC50): ≤ 1000 nM

IC50 (read-out: IKK-2 resin IC50): ≤ 1000 nM
Structure (SMILES): N#Cc1ccc(-n2nc(C(N)=O)c3c2-c2cc(NC(=O)c4ccccc4Cl)ccc2CC3)cc1 [Example 369, 8-[(2-chlorobenzoyl)amino]-1-(4-cyanophenyl)-4,5-dihydro-1H-benzo[g]indazole-3-carboxamide]

Structure (SMILES): CCS(=O)(=O)c1ccc(-n2nc(C(N)=O)c3c2-c2cc(NC(=O)c4cc(NC(=O)OC(C)(C)C)ccc4Cl)ccc2CC3)cc1 [Example 397, tert-butyl 3-[({3-(aminocarbonyl)-1-[4-(ethylsulfonyl)phenyl]-4,5-dihydro-1H-benzo[g]indazol-8-yl}amino)carbonyl]-4-chlorophenylcarbamate]
IC50 (Table 18, read-out: IKK2 Resin IC50): ≤ 1000 nM

Structure (SMILES): CC(C)(O)/C=C/c1ccc(-n2nc(C(N)=O)c3c2-c2cc(NC(=O)c4ccccc4Cl)ccc2CC3)cc1 [Example 289, 8-[(2-chlorobenzoyl)amino]-1-{4-[(1E)-3-hydroxy-3-methylbut-1-enyl]phenyl}-4,5-dihydro-1H-benzo[g]indazole-3-carboxamide]
IC50 [6]: ≤ 1000 nM

Structure (SMILES): CS(=O)(=O)c1ccc(Cl)c(C(=O)Nc2ccc3c(c2)-c2c(c(C(N)=O)nn2-c2ccc4c(c2)OCO4)CC3)c1 [Example 185, 1-(1,3-benzodioxol-5-yl)-8-{[2-chloro-5-(methylsulfonyl)benzoyl]amino}-4,5-diliydro-1H-benzo[g]indazole-3-carboxamide]
IC50 [2]: ≤ 1000 nM

Structure (SMILES): NC(=O)c1nn(-c2ccc3c(c2)OCO3)c2c1CCc1ccc(NC(=O)c3ccccc3Cl)cc1-2 [Example 165, 1-(1,3-benzodioxol-5-yl)-8-[(2-chlorobenzoyl)amino]-4,5-dihydro-1H-benzo[g]indazole-3-carboxamide]
IC50 [2]: ≤ 1000 nM

Structure (SMILES): CC(=O)CCc1ccc(-n2nc(C(N)=O)c3c2-c2cc(NC(=O)c4ccccc4Cl)ccc2CC3)cc1 [Example 296, 8-[(2-chlorobenzoyl)amino]-1-[4-(3-oxobutyl)phenyl]-4,5-dihydro-1H-benzo[g]indazole-3-carboxamide]
IC50 [6]: ≤ 1000 nM

Structure (SMILES): C=CCNS(=O)(=O)c1ccc(-n2nc(C(N)=O)c3c2-c2cc(NC(=O)c4ccccc4Cl)ccc2CC3)cc1 [Example 421, 1-{4-[(allylamino)sulfonyl]phenyl}-8-[(2-chlorobenzoyl)amino]-4,5-dihydro-1H-benzo[g]indazole-3-carboxamide]
IC50 (read-out: IKK-2 resin IC50): ≤ 1000 nM

Structure (SMILES): CS(=O)(=O)c1ccc(-n2nc(C(N)=O)c3c2-c2cc(NC(=O)c4ccc(Cl)c(N)c4)ccc2CC3)cc1 [Example 113, 8-[(3-amino-4-chlorobenzoyl)amino]-1-[4-(methylsulfonyl)phenyl]-4,5-dihydro-1H-benzo[g]indazole-3-carboxamide]
IC50 [4]: ≤ 1000 nM

Structure (SMILES): NC(=O)c1nn(-c2ccc(O)cc2)c2c1CCc1ccc(NC(=O)c3cc(N)ccc3Cl)cc1-2 [Example 280, 8-[(5-amino-2-chlorobenzoyl)amino]-1-(4-hydroxyphenyl)-4,5-dihydro-1H-benzo[g]indazole-3-carboxamide]
IC50 [1]: ≤ 1000 nM

Structure (SMILES): COCCNC(=O)/C=C/c1ccc(-n2nc(C(N)=O)c3c2-c2cc(NC(=O)c4ccccc4Cl)ccc2CC3)cc1 [Example 309, 8-[(2-chlorobenzoyl)amino]-1-(4-{(1E)-3-[(2-methoxyethyl)amino]-3-oxoprop-1-enyl}phenyl)-4,5-dihydro-1H-benzo[g]indazole-3-carboxamide]
IC50 [3]: ≤ 1000 nM

Structure (SMILES): CS(=O)(=O)c1ccc(-n2nc(C(N)=O)c3c2-c2cc(NC(=O)c4cc(F)c(F)cc4[N+](=O)[O-])ccc2CC3)cc1 [Example 149, 8-[(4,5-difluoro-2-nitrobenzoyl)amino]-1-[4-(methylsulfonyl)phenyl]-4,5-dihydro-1H-benzo[g]indazole-3-carboxamide]
IC50 [5]: ≤ 1000 nM

Structure (SMILES): CS(=O)(=O)c1ccc(-n2nc(C(N)=O)c3c2-c2cc(NC(=O)c4cc([N+](=O)[O-])ccc4Cl)ccc2CC3)cc1 [Example 111, 8-[(2-chloro-5-nitrobenzoyl)amino]-1-[4-(methylsulfonyl)phenyl]-4,5-dihydro-1H-benzo[g]indazole-3-carboxamide]
IC50 [4]: ≤ 1000 nM
